Bridges are numbered along the chain shown (N, C = ends). Where no end group is shown, it is not given here.
Legend:
[1] = tested on: Aspergillus fumigatus CEA17, A. nidulans A28 and RCho15, A. niger, Geotrichum candidum, Neurospora crassa; settings: summary of Table 1; range stated for DtDRS-1 and DRS together
[2] = tested on: Neurospora crassa CGMCC 3.1605; assay: Inhibition zone assay; type: cell-based; settings: N.A. = no inhibition zone at 0.8–1.0 nmol peptides each well
Protocol: (§1) Antimicrobial activity of peptides was assessed by the inhibition zone assay. Membrane permeability assay was performed according to the method previously reported. Sources of microbial strains used here are listed in Supplementary Table S2.

[3] = tested on: Aspergillus nidulans RCho15; assay: Inhibition zone assay; type: cell-based; settings: N.A. = no inhibition zone at 0.8–1.0 nmol peptides each well
Protocol: as §1

[4] = tested on: Geotrichum candidum CCTCC AY 93038; assay: Inhibition zone assay; type: cell-based; settings: N.A. = no inhibition zone at 0.8–1.0 nmol peptides each well
Protocol: as §1

[5] = tested on: Aspergillus nidulans A28; assay: Inhibition zone assay; type: cell-based; settings: N.A. = no inhibition zone at 0.8–1.0 nmol peptides each well
Protocol: as §1

[6] = tested on: Aspergillus niger; assay: Inhibition zone assay; type: cell-based; settings: N.A. = no inhibition zone at 0.8–1.0 nmol peptides each well
Protocol: as §1

[7] = tested on: Aspergillus fumigatus CEA17; assay: Inhibition zone assay; type: cell-based; settings: mutant (pyrG-), N.A. = no inhibition zone at 0.8–1.0 nmol peptides each well
Protocol: as §1

[8] = not given; remark: listed apart in the source
[9] = not given; remark: listed apart in the source
[10] = tested on: G. candidum and N. crassa; assay: Inhibition zone assay, summary over two fungal species; type: cell-based; settings: summary of Table 1
[11] = not given; remark: listed apart in the source
[12] = tested on: Bacillus megaterium and Micrococcus luteus; assay: Inhibition zone assay, summary over two Gram-positive bacteria; type: cell-based; settings: summary of Table 1
[13] = tested on: Bacillus megaterium CGMCC 1.0459; assay: Inhibition zone assay; type: cell-based; settings: Gram-positive, N.A. = no inhibition zone at 0.8–1.0 nmol peptides each well
Protocol: as §1

[14] = tested on: Micrococcus luteus CGMCC 1.0290; assay: Inhibition zone assay; type: cell-based; settings: Gram-positive, N.A. = no inhibition zone at 0.8–1.0 nmol peptides each well
Protocol: as §1

[15] = tested on: B. megaterium cells; assay: Membrane permeability assay with propidium iodide; type: cell-based, Bacillus megaterium
[16] = tested on: Xanthomonas oryzae pv.oryzae; settings: inhibition zone assay; Gram-negative; N.A. = no inhibition zone at 0.8–1.0 nmol peptides each well
[17] = peptides at 5× CL, milder than positive control meucin-18

Row | Molecule | Lethal concentrations (CL), range over sensitive fungi [1] [µM] | CL (lethal concentration) [2] [µM] | CL (lethal concentration) [3] [µM] | CL (lethal concentration) [4] [µM] | CL (lethal concentration) [5] [µM] | CL (lethal concentration) [6] [µM] | CL (lethal concentration) [7] [µM] | Turns content [%] | α-Helix content [8] [%] | β-Sheet content [9] [%] | CL, range over two fungal species [10] [µM] | Unordered content [11] [%] | CL, range over two Gram-positive bacteria [12] [µM] | CL (lethal concentration) [13] [µM] | CL (lethal concentration) [14] [µM] | Effect on membrane integrity (propidium iodide fluorescence) [15, 17] | Effect on membrane integrity (propidium iodide fluorescence) ([15]; vancomycin at 10× CL, negative control) | CL (lethal concentration) [16] [µM]
1 | DCLSGRYKGPCAVWDNETCRRVCKEEGRSSGHCSPSLKCWCEGC (disulfide 2-44, 11-33, 19-39, 23-41) [DRS, Drosomycin, reference compound] | 0.1 to 2.6 | 0.1 | 1.73 | 1.89 | 0.45 | 1.32 | 0.30 | – | – | – | – | – | – | – | – | – | – | –
2 | DCLSGRYKGPCAVWDNETCRRVCKEEGRVSGHCSPSLKCWCEGC (disulfide 2-44, 11-33, 19-39, 23-41) [DtDRS-1] | 0.1 to 2.6 | 0.3 | 2.03 | 2.50 | 1.25 | 2.63 | 0.33 | – | – | – | – | – | – | – | – | – | – | –
3 | RDFLSGTFGGPCWAWSGEKCRRLCIEEGHVSGHCSGAMKCWCEG (disulfide 12-34, 20-40, 24-42 (inferred)) [DRS-3-WDB] | – | 3.72 | – | 4.89 | – | – | – | 18 | 19 | 22 | 3.72 to 4.89 | 41 | – | – | – | – | – | –
4 | DFLSGKFKGGCMMWSGEKCRRLCKEQGAVSGHCSTNFKCWCEE (disulfide 11-33, 19-39, 23-41 (inferred)) [DtDRS-11d] | – | – | – | – | – | – | – | 15 | 18 | 16 | – | 53 | 0.98 to 1.08 | 0.98 | 1.08 | immediate fluorescence increase | – | –
5 | CN[C@H](CC(C)C)C(=O)N[C@H]1C(=O)N[C@@H](CC(N)=O)C(=O)N[C@H]2C(=O)N[C@H]3C(=O)N[C@H](C(=O)N[C@H](C(=O)O)c4cc(O)cc(O)c4-c4cc3ccc4O)[C@H](O)c3ccc(c(Cl)c3)Oc3cc2cc(c3O[C@@H]2O[C@H](CO)[C@@H](O)[C@H](O)[C@H]2O[C@H]2C[C@](C)(N)[C@H](O)[C@H](C)O2)Oc2ccc(cc2Cl)[C@H]1O [vancomycin, reference compound] | – | – | – | – | – | – | – | – | – | – | – | – | – | – | – | – | no fluorescence increase | –
6 | DFKSGKFKGGCMAWSGEKCRRLCKEQGAVSGHCSSNFKCWCEM (disulfide 11-33, 19-39, 23-41 (inferred)) [DtDRS-11] | – | – | – | – | – | – | – | 15 | 21 | 16 | – | 48 | – | 4.41 | 3.06 | immediate fluorescence increase | – | 8.84

Reference: article PMC4999892 (Scientific Reports, 2016)
